# Values quoted from earlier work, collected in US20090156670A1 (VENUS REMEDIES LIMITED, priority 2004, published 2009).
# Legend:
# [1] = rheumatoid arthritis patients, long-term (6 months) study
# [2] = test system: CD43; settings: human neutrophils
# [3] = test system: ICAM-3; settings: human neutrophils
# [4] = test system: CD11a; settings: human neutrophils
# [5] = test system: CD31; settings: human neutrophils
# [6] = test system: CD44; settings: human neutrophils
# [7] = test system: CD11b; settings: human neutrophils
# [8] = test system: neutrophil aggregation
# [9] = test system: sodium urate-induced synovitis; settings: dogs; prophylactically and therapeutically
# [10] = test system: adjuvant-induced polyarthritis; settings: rats; prophylactically and therapeutically
# [11] = pain elicited by chemical and mechanical stimuli
# [12] = rats
# [13] = test system: interleukin1β-induced prostaglandin E2 production
# [14] = target: COX-I (Homo sapiens, UniProt P23219); settings: oral form
# Sequence of COX-I (P23219 24-599): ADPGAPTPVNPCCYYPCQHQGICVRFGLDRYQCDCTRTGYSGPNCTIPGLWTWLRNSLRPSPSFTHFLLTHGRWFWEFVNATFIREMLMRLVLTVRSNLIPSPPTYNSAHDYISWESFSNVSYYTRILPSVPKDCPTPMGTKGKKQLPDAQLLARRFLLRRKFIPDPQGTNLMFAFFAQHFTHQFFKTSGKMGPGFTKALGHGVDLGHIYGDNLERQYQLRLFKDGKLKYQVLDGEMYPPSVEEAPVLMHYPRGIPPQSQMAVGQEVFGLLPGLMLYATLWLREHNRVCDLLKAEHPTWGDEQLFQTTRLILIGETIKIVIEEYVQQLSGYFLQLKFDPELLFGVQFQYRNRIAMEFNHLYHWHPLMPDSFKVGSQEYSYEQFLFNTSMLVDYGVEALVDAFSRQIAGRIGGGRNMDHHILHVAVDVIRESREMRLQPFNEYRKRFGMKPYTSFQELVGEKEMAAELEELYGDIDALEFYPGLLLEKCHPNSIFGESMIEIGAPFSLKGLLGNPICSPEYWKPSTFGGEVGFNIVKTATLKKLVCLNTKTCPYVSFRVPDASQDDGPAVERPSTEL
Compound,incidence of gastrointestinal intolerance [1] [%],decrement of CD43 expression [2],decrement of ICAM-3 expression [3],CD11a expression [4],CD31 expression [5],CD44 expression [6],CD11b expression [7],neutrophil aggregation induced with anti-CD43 Mab [8],activity against sodium urate-induced synovitis [9],activity against adjuvant-induced polyarthritis [10],analgesic effect compared with indometacin and diclofenac [11],fever induced by brewer's yeast injection [12],interleukin1β-induced prostaglandin E2 production [13],COX-I inhibitor effect [14]
"O=C(O)COC(=O)Cc1ccccc1Nc1c(Cl)cccc1Cl [aceclofenac, 2-[(2,6-dichlorophenyl)amino]phenylacetoxyacetic acid]",13,moderate,slight,unaffected,unaffected,unaffected,slightly increased,significantly inhibited,highly active,highly active,nearly equal to or slightly better,markedly suppressed,inhibits,poor
O=C(O)Cc1ccccc1Nc1c(Cl)cccc1Cl [diclofenac],17,,,,,,,,,,,,,
